Measured values taken from patent US5622969A, “Method of treating leukotriene caused diseases with N-benzyl dihydroindole LTD4 antagonists” (Eli Lilly and Company, priority 1995, dated 1997).

How the values were obtained:
[1] = target: T1, LTD4 receptor (guinea pig lung membrane) (Cavia porcellus, UniProt Q2NNR5); test: Assay 3 - Guinea Pig Lung Membrane [3H] LTD4 Radioligand Binding (GPLM binding); details: [3H] LTD4, guinea pig lung membrane, 30 min, 30° C., pH 6.5; for Ki: read-out: GPLM binding (pKi) (converted)
T1 construct: guinea-pig lung membrane preparation; from tissue; host or cells: guinea pig lung membranes
T1 sequence (Q2NNR5 1-340): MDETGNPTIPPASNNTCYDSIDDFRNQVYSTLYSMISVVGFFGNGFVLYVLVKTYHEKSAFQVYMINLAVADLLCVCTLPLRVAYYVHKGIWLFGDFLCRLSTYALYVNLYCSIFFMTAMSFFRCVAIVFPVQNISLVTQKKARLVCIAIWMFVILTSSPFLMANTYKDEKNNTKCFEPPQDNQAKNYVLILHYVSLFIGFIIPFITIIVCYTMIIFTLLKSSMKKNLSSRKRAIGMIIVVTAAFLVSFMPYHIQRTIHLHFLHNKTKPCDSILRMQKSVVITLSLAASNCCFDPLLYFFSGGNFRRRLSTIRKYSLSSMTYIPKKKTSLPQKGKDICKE
Method: Assay 3--Guinea Pig Lung Membrane [^3 H] LTD4 Radioligand Binding: [^3 H] LTD4 was purchased from New England Nuclear (Boston, Mass.). All other chemicals were purchased from Sigma (St. Louis, Mo.). Incubations were performed in silanised glass tubes and contained 30 mg of guinea-pig lung membrane preparation (Saussy, et al., Mol. […] The binding reaction was terminated after 30 min. at 30° C. by the addition of 4 ml ice cold wash buffer (25 mM Tris --HCl, pH 7.5), followed immediately by vacuum filtration over Whatman (GF/C glass fibre filters, using a Brandel (Gaithersburg, Md.) 48 place harvester. The tubes and filter were washed 3×4 ml in cold wash buffer. Retained radioactivity was determined by liquid scintillation counting at 50% counting efficiency using Ready Protein Plus cocktail (Beckman, Fullerton, Calif.). Data were analyzed using linear regression analysis of log-logit plots of the values between 10% and 90% of control biding to calculate I[…] and slope factors (pseudo-Hill coefficients). IC50 values were corrected for radioligand concentrations (Cheng and Prusoff, Biochem. Pharmacol. 22:3099-3108, 1973) to calculate Ki values.

[2] = target: T2, LTD4 receptor (intestinal smooth muscle receptors, guinea pig ileum) (Cavia porcellus, UniProt Q2NNR5); test: Assay 2 - Guinea Pig Ileum, antagonism of LTD4 contraction; details: drug added 30 minutes prior, read-out: GP ileum (pKb) (converted)
T2 construct: Terminal ilea were removed from the animals; from tissue; host or cells: guinea pig terminal ileum segments
T2 sequence (Q2NNR5 1-340): T1 sequence (Q2NNR5 1-340)
Method: Assay 2--Guinea Pig Ileum:
Guinea pig ileum was used to determine the potency of novel LTD4 receptor antagonists on intestinal smooth muscle receptors. Terminal ilea were removed from the animals exsanguinated after CO2 asphyxiation and cut into smaller segments of approximately 2 to 3 cm. Tissues were placed in organ baths containing Krebs'bicarbonate solution prepared without indomethacin and 1-cysteine and aerated with 95% O2 and 5% CO2. After a 60 minute equilibration period, 3 submaximal contractions to histamine (3×10^-6 M) were obtained on all tissues. A cumulative concentration-response curve to LTD4 was then generated using the method of Van Rossum (Arch. Int. Pharmacodyn. Ther. 143:299, 1963). Agonist was washed from the baths and the tissues permitted to recover. After a second LTD4 concentration-response curve was produced, the ilea were washed once again and permitted to re-equilibrate. Experimental drug was added to the baths 30 minutes prior to a final LTD4 concentration-response curve.
(§1) The contractions of trachea and ilea to LTD4 in the presence of the drug was compared to responses in the absence of drug. KB values were calculated by the method of Furchgott (Ann. N.Y. Acad. Sci., 139:553, 1967) using the following equation: KB =[Antagonist]/Dose-Ratio-1.

[3] = target: T3, leukotriene receptor (guinea pig trachea) (Cavia porcellus, UniProt Q2NNR5); test: Assay 1 - Guinea Pig Tracheae, leukotriene receptor antagonism (LTD4 contraction); details: antagonist added 45 minutes prior, read-out: GP trach (pKb) (converted)
T3 construct: Trachea were cut into ring segments and the epithelium removed; from tissue; host or cells: guinea pig tracheal rings, epithelium removed (male Hartley)
T3 sequence (Q2NNR5 1-340): T1 sequence (Q2NNR5 1-340)
Method: Assay 1--Guinea Pig Tracheae
Leukotriene receptor antagonism was evaluated in isolated smooth muscles by the following procedure:
Male Hartley guinea pigs weighing 250-400 grams were asphyxiated with CO2 and exsanguinated. Trachea were excised and placed in Krebs'-bicarbonate solution of the following composition in mM/liter: NaCl, 118.2; NaHCO3, 24.8; KCl, 4.6; KH2 PO4, 1.2, MgSO4.7H2 O, 1.2; dextrose, 10.0; CaCl2.2H2 O, 2.5; 1-cysteine, 3.0, and indomethacin, 3 μM. Trachea were cut into ring segments and the epithelium removed by gently rubbing the luminal surface with a cotton swab. Tracheal rings were placed on supports constructed from two 1 inch 30 gauge disposable stainless steel hypodermic needles (Hooker, et al., 1977, Blood Vessels 14:1-11), and transferred to organ baths containing Krebs' solution maintained at 37° C. and aerated with 95% O2 and 5% CO2. Isometric measurements were made with a Grass FTO3C force-displacement transducer and recorded on a Grass polygraph as changes in grams of force. After approximately 60 minutes of equilibration, a single submaximal concentration of LTD4 (3×10^-8 M) was used to contract the trachea. Two LTD4 concentration-response curves were then generated using the cumulative response technique of Van Rossum (1963). A potential leukotriene receptor antagonist was added to the tissue bath 45 minutes prior to generation of the second LTD4 concentration-response curve.
as §1

GPLM binding (pKi) [1] | Kb [2] | Kb [3] | Ki [1] | SMILES
7.3 | 11.2 nM | 15.8 nM |  | c1cc(CN2CCc3cccc(CCc4nnn[nH]4)c32)cc(OCc2ccc3ccccc3n2)c1 [Example 7, 5-[2-[1-[3-(Quinolin-2-ylmethoxy)benzyl]-2,3-dihydroindol-7-yl]-ethyl]-1H-tetrazole]
 |  |  | 2.34 nM | Clc1ccc2ccc(/C=C/c3ccc(CN4CCc5cccc(CCc6nnn[nH]6)c54)cc3)nc2c1 [Example 11, 5-[2-[1-[4-[2-E-(7-Chloroquinolin-2-yl)ethenyl]benzyl]-2,3-dihydroindol-7-yl]-ethyl]-1H-tetrazole]
7.8 | 2.51 nM |  |  | C(=C\c1ccc2ccccc2n1)/c1cccc(CN2CCc3cccc(CCc4nnn[nH]4)c32)c1 [Example 9, 5-[2-[1-[3-[2-E-(Quinolin-2-yl)ethenyl]benzyl]-2,3-dihydroindol-7-yl]ethyl]-1H-tetrazole]
 |  |  | 2.45 nM | Clc1ccc2ccc(/C=C/c3cccc(CN4CCc5cccc(OCc6nn[nH]n6)c54)c3)nc2c1 [Example 10, 5-[1-[3-[2-E-(7-Chloroquinolin-2-yl)ethenyl]benzyl]-2,3-dihydroindol-7-yloxymethyl]-1H-tetrazole]

The remaining lines, values behind:

SMILES | GPLM binding (pKi) [1] | Kb [2] | Kb [3] | Ki [1]
Clc1ccc2ccc(COc3ccc(CN4CCc5cccc(CCc6nnn[nH]6)c54)cc3)nc2c1 [Example 6, 5-[2-[1-[4-(7-Chloroquinolin-2-ylmethoxy)benzyl]-2,3-dihydroindol-7-yl]-ethyl]-1H-tetrazole] | 7.6 | 3.24 nM | 25.7 nM | 
Clc1ccc2ccc(/C=C/c3cccc(CN4CCc5cccc(CCc6nnn[nH]6)c54)c3)nc2c1 [Example 4, 5-[2-[1-[3-[2-E-(7-Chloroquinolin-2-yl)ethenyl]benzyl]-2,3-dihydroindol-7-yl]ethyl]-1H-tetrazole] | 8.3 | 2.34 nM | 28.8 nM | 
Clc1ccc2ccc(COc3cccc(CN4CCc5cccc(CCc6nnn[nH]6)c54)c3)nc2c1 [Example 5, 5-[2-[1-[3-(7-Chloroquinolin-2-ylmethoxy)benzyl]-2,3-dihydroindol-7-yl]-ethyl]-1H-tetrazole] | 8.0 | 3.89 nM | 8.32 nM | 
